Patent US20240199754A1 (VANCOUVER BIOTECH LTD., priority 2021, published 2024)

Assays:
[1] = biological target: T1, N1-29 synthetic oligopeptide of GnRH receptor from humans (Homo sapiens, UniProt P30968); assay: Comparative binding ELISA on well-coated N1-29 oligopeptide (human); settings: vs unrelated RP215 negative control
T1 sequence (P30968 1-30): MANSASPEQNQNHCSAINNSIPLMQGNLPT
Protocol: (§1) Therefore, comparative binding ELISA studies were performed to estimate the relative binding affinity between GHR-106 and microwell-coated N1-29 oligopeptides derived from human, dog and rabbit, respectively. The results of such binding studies are presented and compared in FIG. 2.
(§2) Unrelated RP215 monoclonal antibody was used as the negative control for any blank subtractions. Goat anti-human IgG labeled with alkaline phosphatase was used as the second antibody for signal detection. P-nitrophenyl phosphate was used as the substrate and monitored at 405 nm and double log plot presented.

[2] = system: N1-29 synthetic oligopeptide of GnRH receptor from dog; assay: Comparative binding ELISA on well-coated N1-29 oligopeptide (dog); settings: vs unrelated RP215 negative control
Protocol: as §1, §2

[3] = system: N1-29 synthetic oligopeptide of GnRH receptor from rabbit; assay: Comparative binding ELISA on well-coated N1-29 oligopeptide (rabbit); settings: vs unrelated RP215 negative control
Protocol: as §1, §2

[4] = system: pituitary GnRH receptor; assay: Serum LH and testosterone after single injection, single adult male rabbit; format: in vivo
Protocol: In the case of male rabbits, serum concentrations of reproductive hormones including luteinizing hormone (LH) and testosterone were monitored regularly following a single subcutaneous injection with 3 mg/kg of hGHR-106.
The serum LH and testosterone concentrations were determined, respectively, by EIA kits and plotted as a function of time during the day 1 to 30 time period.

[5] = system: pituitary GnRH receptor; assay: Serum LH and estradiol after single injection, female rabbit; format: in vivo
Protocol: The hormonal profiles of serum luteinizing hormone (LH) and Estradiol (E2) in female rabbits were monitored upon a single injection with a 3 mg/kg dose of hGHR-106.

[6] = system: pituitary GnRH receptor; assay: Large scale proof of concept experiment, male rabbits (testosterone, LH); format: in vivo, rabbit
Protocol: (§3) With preliminary observations in single rabbit data, large scale rabbit experiments (n≥30) including negative controls were conducted with identical protocols. […] The data generated in each experimental group were analyzed statistically. The means and standard deviations of hormone levels from rabbits in each experimental group are presented in FIGS. 6-9 and corresponding selected statistical analyses and separate comparisons with those of the negative controls are presented in Table 1 to Table 4.
In the case of male rabbits, the serum concentrations of reproductive hormones including LH and testosterone of ten male rabbits were monitored and measured after a single subcutaneous injection with 1 mg/kg of GHR-106 (low dosage, n=3) or 3 mg/kg of GHR-106 (high dosage, n=3) on day 1, or after no injection (negative control, n=4). Serum testosterone levels were determined and the averages (with standard deviations) were determined from day 1 to day 17, and serum LH levels were determined starting on day 1 and ending on day 13 (with standard deviations) The results of the testosterone profile are found in FIG. 6. The results of the LH profile are found in FIG. 7. Selected statistical analyses and separate comparisons with those of the negative controls for FIG. 6 and FIG. 7 are found in Table 1 and Table 2, respectively.

[7] = system: pituitary GnRH receptor; assay: Large scale proof of concept experiment, female rabbits (estradiol, LH); format: in vivo, rabbit
Protocol: as §3
Target sequence in this assay (as listed by the source): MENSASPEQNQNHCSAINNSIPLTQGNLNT
In the case of female rabbits, the serum concentrations of reproductive hormones including LH and estradiol (E2) of ten female rabbits were monitored and measured after a single subcutaneous injection with 1 mg/kg of GHR-106 (low dosage, n=3) or 3 mg/kg of GHR-106 (high dosage, n=3) on day 1, or after no injection (negative control, n=4). Serum E2 levels were determined starting on day 1 and ending on day 17, and serum LH levels were determined starting on day 1 and ending on day 13. The results of the estradiol (E2) profile are found in FIG. 8. The results of the LH profile are found in FIG. 9. Selected statistical analyses and separate comparisons with those of the negative controls for FIG. 8 and FIG. 9 are found in Table 3 and Table 4, respectively.

[8] = system: pituitary GnRH receptor; assay: Proof-of-concept rabbit experiments overall (single and multi-rabbit); format: in vivo; settings: single injection, 1 mg/kg or 3 mg/kg
Protocol: as §3

[9] = system: OC-3-VGH ovarian cancer cells; assay: Quantitative RT-PCR gene regulation study; format: cell-based, human; settings: quantitative RT-PCR after incubation with cancer cells
[10] = biological target: T2, GnRHR (Homo sapiens, UniProt P30968); assay: Detection of GnRHR overexpression in a reference cell line; format: cell-based; settings: compared with four commercially available antibodies
T2 sequence (P30968 1-328): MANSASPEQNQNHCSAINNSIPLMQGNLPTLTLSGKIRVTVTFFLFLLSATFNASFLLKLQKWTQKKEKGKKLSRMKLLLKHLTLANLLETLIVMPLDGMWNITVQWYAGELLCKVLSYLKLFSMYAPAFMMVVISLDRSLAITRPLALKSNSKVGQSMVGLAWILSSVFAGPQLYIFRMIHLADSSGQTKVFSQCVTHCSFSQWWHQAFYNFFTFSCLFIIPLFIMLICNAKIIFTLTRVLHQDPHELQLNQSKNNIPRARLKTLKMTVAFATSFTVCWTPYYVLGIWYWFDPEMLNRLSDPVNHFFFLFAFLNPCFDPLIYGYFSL
Protocol: In particular, the ability of GHR-106 to detect overexpression of GnRHR in a reference cell line is tested and compared with four different commercially available antibodies.

[11] = in vivo; cited from earlier work
[12] = system: N1-29 peptide of monkey GnRH receptor; settings: cited from earlier work
[13] = system: N1-29 peptide of rabbit GnRH receptor; settings: cited from earlier work
[14] = system: N1-29 peptide of dog GnRH receptor; settings: cited from earlier work
[15] = system: N1-29 peptide of cat GnRH receptor; settings: cited from earlier work
[16] = system: human cancer cells; settings: 24 to 72 hours co-incubation with 1-10 μg/ml; cited from earlier work
[17] = biological target: T3, N1-29 synthetic oligopeptide of human GnRH receptor (human); assay: ELISA on well-coated N1-29 peptide, goat anti-human IgG-alkaline phosphatase, OD 405 nm
T3 construct: Synthetic peptide coated on microwells; also called human N1-29 peptide; N1-29 oligopeptide
T3 peptide: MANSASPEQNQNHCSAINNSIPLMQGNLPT

[18] = male rabbit, single subcutaneous injection of 1 mg/kg or 3 mg/kg
[19] = male rabbits, single injection day 1, low (1 mg/kg) or high (3 mg/kg) dosage, vs negative control
[20] = single injection day 1, low (1 mg/kg) or high (3 mg/kg) dosage, vs negative control

N1-29 synthetic oligopeptide of GnRH receptor from dog, sequence (as listed by the source): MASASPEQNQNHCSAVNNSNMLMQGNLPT
N1-29 peptide of monkey GnRH receptor, sequence (as listed by the source): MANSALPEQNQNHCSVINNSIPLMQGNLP
N1-29 peptide of cat GnRH receptor, sequence (as listed by the source): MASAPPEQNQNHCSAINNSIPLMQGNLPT
N1-29 synthetic oligopeptide of GnRH receptor from rabbit, sequence (as listed by the source): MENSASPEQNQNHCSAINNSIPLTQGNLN

Which results are given for “GHR-106: monoclonal antibody against N1-29 oligopeptide of human GnRH receptor; examples use humanized IgG4 form, heavy chain SEQ ID NO:7, light chain SEQ ID NO:8”?
binding affinity to N1-29 peptide (ELISA, ΔOD 405 nm) [1]: comparable to one another; binding affinity to N1-29 peptide (ELISA, ΔOD 405 nm) [2]: comparable to one another; binding affinity to N1-29 peptide (ELISA, ΔOD 405 nm) [3]: comparable to one another; duration of low LH levels ([4]; 3 mg/kg s.c.): at least one to two; serum LH ([4]; 3 mg/kg s.c., after 24-48 hours, from 3.5 mlU/ml): < 0.5 mlU/ml; serum LH, stable normal range reached ([4]; 3 mg/kg s.c., end of the third week): 2.9-5.0 mlU/ml; decrease of serum testosterone concentration ([4]; 3 mg/kg single injection, first two weeks): more than 80%; serum testosterone concentration ([4]; 3 mg/kg single injection, first two weeks, from 0.95 ng/ml): ≤ 0.1 ng/mL; LH and testosterone hormone levels ([4]; 3 mg/kg, day 30): within the normal range; serum LH ([5]; 3 mg/kg single injection, first few days, from 3 mlU/ml): ≤ 1 mlU/ml; serum E2 concentration ([5]; 3 mg/kg single injection, until day 10, from 50 pg/ml): ≤ 20 pg/mL; serum E2 concentration reached on recovery ([5]; 3 mg/kg, after day 18 and 20): 120 pg/mL; serum LH concentration reached on recovery ([5]; 3 mg/kg, after day 18 and 20): 6 mIU/ml; decrease of serum LH concentration, of the normal level [6, 18]: 80 to 90%; decrease of serum testosterone concentration, of the normal level [6, 18]: 80 to 90%; period of decreased serum LH and testosterone [6, 18]: seven to ten; time until reproductive hormones returned to normal levels after the initial injection [6, 18]: approximately two; t test, LH profile, neg. ctrl to 1 mg/kg ([6]; male rabbits, Day 3, 1 mg/kg): 3.579; t test, testosterone profile, neg. ctrl to 1 mg/kg ([6]; male rabbits, Day 3, 1 mg/kg): 2.966; t test, LH profile, neg. ctrl to 3 mg/kg ([6]; male rabbits, Day 3, 3 mg/kg): 1.474; t test, testosterone profile, neg. ctrl to 3 mg/kg ([6]; male rabbits, Day 3, 3 mg/kg): 4.2; t test, LH profile, neg. ctrl to 1 mg/kg ([6]; male rabbits, Day 5, 1 mg/kg): 4.698; t test, testosterone profile, neg. ctrl to 1 mg/kg ([6]; male rabbits, Day 5, 1 mg/kg): 3.353; t test, LH profile, neg. ctrl to 3 mg/kg ([6]; male rabbits, Day 5, 3 mg/kg): 3.596; t test, testosterone profile, neg. ctrl to 3 mg/kg ([6]; male rabbits, Day 5, 3 mg/kg): 3.851; t test, LH profile, neg. ctrl to 1 mg/kg ([6]; male rabbits, Day 7, 1 mg/kg): 4.126; t test, testosterone profile, neg. ctrl to 1 mg/kg ([6]; male rabbits, Day 7, 1 mg/kg): 1.086; t test, LH profile, neg. ctrl to 3 mg/kg ([6]; male rabbits, Day 7, 3 mg/kg): 3.62; t test, testosterone profile, neg. ctrl to 3 mg/kg ([6]; male rabbits, Day 7, 3 mg/kg): 7.396; t test, LH profile, neg. ctrl to 1 mg/kg ([6]; male rabbits, Day 9, 1 mg/kg): 2.936; t test, testosterone profile, neg. ctrl to 1 mg/kg ([6]; male rabbits, Day 9, 1 mg/kg): 0.3439; t test, LH profile, neg. ctrl to 3 mg/kg ([6]; male rabbits, Day 9, 3 mg/kg): 3.56; t test, testosterone profile, neg. ctrl to 3 mg/kg ([6]; male rabbits, Day 9, 3 mg/kg): 0.8405; serum LH levels [6, 19]: reversibly suppressed; serum testosterone levels [6, 19]: reversibly suppressed; t test, LH profile, neg. ctrl to 1 mg/kg ([7]; Day 3, 1 mg/kg): 3.93; t test, estradiol (E2) profile, neg. ctrl to 1 mg/kg ([7]; Day 3, 1 mg/kg): 1.179; t test, LH profile, neg. ctrl to 3 mg/kg ([7]; Day 3, 3 mg/kg): 6.348; t test, estradiol (E2) profile, neg. ctrl to 3 mg/kg ([7]; Day 3, 3 mg/kg): 1.125; t test, LH profile, neg. ctrl to 1 mg/kg ([7]; Day 5, 1 mg/kg): 6.556; t test, estradiol (E2) profile, neg. ctrl to 1 mg/kg ([7]; Day 5, 1 mg/kg): 2.893; t test, LH profile, neg. ctrl to 3 mg/kg ([7]; Day 5, 3 mg/kg): 5.114; t test, estradiol (E2) profile, neg. ctrl to 3 mg/kg ([7]; Day 5, 3 mg/kg): 2.039; t test, LH profile, neg. ctrl to 1 mg/kg ([7]; Day 7, 1 mg/kg): 6.018; t test, estradiol (E2) profile, neg. ctrl to 1 mg/kg ([7]; Day 7, 1 mg/kg): 2.807; t test, LH profile, neg. ctrl to 3 mg/kg ([7]; Day 7, 3 mg/kg): 4.126; t test, estradiol (E2) profile, neg. ctrl to 3 mg/kg ([7]; Day 7, 3 mg/kg): 2.45; t test, LH profile, neg. ctrl to 1 mg/kg ([7]; Day 9, 1 mg/kg): 1.1; t test, estradiol (E2) profile, neg. ctrl to 1 mg/kg ([7]; Day 9, 1 mg/kg): 3.048; t test, LH profile, neg. ctrl to 3 mg/kg ([7]; Day 9, 3 mg/kg): 4.126; t test, estradiol (E2) profile, neg. ctrl to 3 mg/kg ([7]; Day 9, 3 mg/kg): 5.087; serum LH levels [7, 20]: reversibly suppressed; serum estradiol (E2) levels [7, 20]: reversibly suppressed; time until hormone levels return to normal ranges [8]: 1-3 weeks; gene expression changes of ten regulatory genes, compared between GHR-106 and Antide [9]: strong similarity; ability to detect overexpression of GnRHR [10]: able to detect overexpression of GnRHR; half-life [11]: 120 to 504 h; cross-reactivity with N1-29 peptide [12]: cross-reacts; cross-reactivity with N1-29 peptide [13]: cross-reacts; cross-reactivity with N1-29 peptide [14]: cross-reacts; cross-reactivity with N1-29 peptide [15]: cross-reacts; degrees of induced apoptosis [16]: comparable to those of the decapeptide GnRH antagonist, Antide

B1: GHR-106(hIgG4), humanized IgG4 GHR-106 monoclonal antibody (antibody, V domains shown)
VH: QVQLQESGPGLVKPSETLSLTCTVSGFSLSRYSVHWIRQPPGKGLEWIGMIWGGGSTDYNPSLKSRVTISKDNSKSQVFLKMSSVTAADTAMYYCARGNDGYYSFAYWGQGTLVTVSS
VL: DIVMTQSPDSLAVSLGERATINCKSSQSLLNSRTRKNYLAWYQQKPGQSPKLLIYWASTRESGVPDRFSGSGSGTDFTLTISSLQAEDVAVYYCKQSYNLYTFGQGTKLEIKR
notes: Humanized IgG4
Does B1 bind [17]?
Result: binds
